Measurements published in US10898481B2 (priority 2018, dated 2021).

Key:
[1] = target: mA2a/CHO (Mus musculus (Mouse), UniProt Q60613); experiment: cAMP inhibition assay in mA2a/CHO cells, 10 μM adenosine; type: cell-based; conditions: read-out: cAMP & FLIPR IC50 (nM) mA2a;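 also: compounds preincubated 30 min at 37 °C before the adenosine challenge, then 30 min further stimulation, readout after 60 min detection reagent incubation at room temperature in 384-well plates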
Description: (§1) hA2a/CHO, hA2b/CHO, hA3/CHO and mA2a/CHO (Genscript) were plated at 5×10^3 cells/well into 384-well polystyrene plates at the day of experiment. Compounds were pre-incubated with cells for 30 min at 37° C., 5% CO2. Then 10 μM adenosine was added to the cells and incubated for 30 min at 37° C., 5% CO2. Detection reagent (CISBIO) was added and the plates were incubated for 60 min at room temperature. The signal was captured by Envision.

[2] = target: hA2b/CHO (Homo sapiens (Human), UniProt P29275); experiment: cAMP inhibition assay in hA2b/CHO cells, 10 μM adenosine; type: cell-based; conditions: read-out: cAMP & FLIPR IC50 (nM) hA2b;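 also: cells exposed to compound 30 min at 37 °C, then stimulated with adenosine a further 30 min, cAMP read after 60 min at room temperature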
Sequence of hA2b/CHO (P29275 whole entry): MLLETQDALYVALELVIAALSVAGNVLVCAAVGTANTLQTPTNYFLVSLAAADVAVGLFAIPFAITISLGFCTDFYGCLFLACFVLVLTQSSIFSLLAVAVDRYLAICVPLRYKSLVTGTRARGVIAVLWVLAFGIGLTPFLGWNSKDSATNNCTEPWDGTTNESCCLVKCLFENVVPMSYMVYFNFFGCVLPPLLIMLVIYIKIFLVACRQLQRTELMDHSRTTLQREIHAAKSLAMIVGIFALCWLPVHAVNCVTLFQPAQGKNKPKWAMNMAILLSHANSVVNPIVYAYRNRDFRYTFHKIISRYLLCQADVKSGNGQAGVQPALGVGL
Description: as §1

[3] = target: hADORA1/CHO (hA1 expressing) cells (Homo sapiens (Human), UniProt P30542); experiment: cell-based; conditions: FLIPR inhibition, 10 μM adenosine, read-out: cAMP & FLIPR IC50 (nM) hA1
Sequence of hADORA1/CHO (hA1 expressing) cells (P30542 whole entry): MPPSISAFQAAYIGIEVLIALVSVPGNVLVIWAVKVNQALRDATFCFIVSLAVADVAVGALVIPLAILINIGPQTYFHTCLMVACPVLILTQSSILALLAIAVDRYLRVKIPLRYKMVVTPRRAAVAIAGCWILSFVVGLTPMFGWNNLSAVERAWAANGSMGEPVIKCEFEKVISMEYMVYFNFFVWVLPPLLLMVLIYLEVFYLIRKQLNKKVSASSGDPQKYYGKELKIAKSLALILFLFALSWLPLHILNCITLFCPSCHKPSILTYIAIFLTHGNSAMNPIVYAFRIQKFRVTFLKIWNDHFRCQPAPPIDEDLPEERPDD
Description: hADORA1/CHO (hA1 expressing) cells (Genscript) were plated at 1×10^4 cells/well into 384-well polystyrene plates one day before starting the experiment. On the day of experiment, the supernatant was discard and replaced with 40 μL of dye (FLIPR calcium 5 Assay Kit) per well and the plates were incubated for 60 mins at 37° C. plus 5% CO2. Then testing compounds were added at different concentrations for FLIPR™ inhibition assay. After a 400s incubation with compound, 10 μM adenosine was added into the cells, and the signal was captured by FLIPR.

[4] = target: hA2a/CHO (Homo sapiens (Human), UniProt P29274); experiment: cAMP inhibition assay in hA2a/CHO cells, 10 μM adenosine; type: cell-based; conditions: read-out: cAMP & FLIPR IC50 (nM) hA2a;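 also: compounds added to cells 30 min ahead of adenosine, then a further 30 min at 37 °C with adenosine before cAMP detection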
Sequence of hA2a/CHO (P29274 whole entry): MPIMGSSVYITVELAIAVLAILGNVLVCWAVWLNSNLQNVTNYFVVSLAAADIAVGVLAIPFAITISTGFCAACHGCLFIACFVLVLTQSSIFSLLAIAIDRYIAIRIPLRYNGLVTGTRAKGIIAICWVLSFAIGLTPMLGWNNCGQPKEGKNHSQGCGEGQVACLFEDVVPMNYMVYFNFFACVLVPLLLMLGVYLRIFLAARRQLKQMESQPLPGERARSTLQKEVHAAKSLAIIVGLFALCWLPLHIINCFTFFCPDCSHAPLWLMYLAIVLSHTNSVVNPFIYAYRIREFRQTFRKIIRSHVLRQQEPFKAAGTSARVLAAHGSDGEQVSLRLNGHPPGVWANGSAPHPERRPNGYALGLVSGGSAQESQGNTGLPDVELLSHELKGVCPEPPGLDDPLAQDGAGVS
Description: as §1

Sequence of mA2a/CHO (Q60613 whole entry): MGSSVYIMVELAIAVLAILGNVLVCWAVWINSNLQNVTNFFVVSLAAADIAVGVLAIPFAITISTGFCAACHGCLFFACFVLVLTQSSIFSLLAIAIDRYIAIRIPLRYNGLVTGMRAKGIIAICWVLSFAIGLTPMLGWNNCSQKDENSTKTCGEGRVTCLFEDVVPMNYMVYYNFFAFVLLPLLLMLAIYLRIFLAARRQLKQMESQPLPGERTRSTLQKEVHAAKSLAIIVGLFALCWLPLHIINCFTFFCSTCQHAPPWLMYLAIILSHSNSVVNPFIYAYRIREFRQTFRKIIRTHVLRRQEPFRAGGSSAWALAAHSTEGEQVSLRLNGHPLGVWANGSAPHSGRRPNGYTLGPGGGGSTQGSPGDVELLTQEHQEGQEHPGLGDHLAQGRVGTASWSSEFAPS

SMILES	IC50 [1] [nM]	IC50 [2] [nM]	IC50 [3] [nM]	IC50 [4] [nM]
Cc1cnc2ccc(-c3nc(C(=O)NCC4CN(C)CCO4)c(N)nc3-c3ncco3)cn12 (racemic) [Example 207, rac-3-amino-6-(3-methylimidazo[1,2-a]pyridin-6-yl)-N-((4-methylmorpholin-2-yl)methyl)-5-(oxazol-2-yl)pyrazine-2-carboxamide]	44	774	5950	12
Cc1cnc2ccc(-c3nc(C(=O)NCC4COCCO4)c(N)nc3-c3ncco3)cn12 (racemic) [Example 211, rac-N-((1,4-dioxan-2-yl)methyl)-3-amino-6-(3-methylimidazo[1,2-a]pyridin-6-yl)-5-(oxazol-2-yl)pyrazine-2-carboxamide]	19	160	319	3.6
Cc1cnc2ccc(-c3nc(C(=O)NCC4CCC(=O)N4C)c(N)nc3-c3ncco3)cn12 (racemic) [Example 212, rac-3-amino-N-((1-methyl-5-oxopyrrolidin-2-yl)methyl)-6-(3-methylimidazo [1,2-a]pyridin-6-yl)-5-(oxazol-2-yl) pyrazine-2-carboxamide]	175	3430	> 10000	34
COC(C)CNC(=O)c1nc(-c2ccc3ncc(C)n3c2)c(-c2ncco2)nc1N (racemic) [Example 228, rac-3-amino-N-(2-methoxypropyl)-6-(3-methylimidazo[1,2-a]pyridin-6-yl)-5-(oxazol-2-yl)pyrazine-2-carboxamide]	23	210	2020	2.7
CN1CCCC1CNC(=O)c1nc(-c2ccc3ncc(C(F)(F)F)n3c2)c(-c2ncco2)nc1N (single isomer, unassigned) [Cmpd. 202, 3-amino-N-[[1-methylpyrrolidin-2-yl]methyl]-5-(1,3-oxazol-2-yl)-6-[3-(trifluoromethyl)imidazo[1,2-a]pyridin-6-yl]pyrazine-2-carboxamide]	105	1130	6920	17
CN1CCCC1CNC(=O)c1nc(-c2ccc3ncc(C(F)(F)F)n3c2)c(-c2ncco2)nc1N (single isomer, unassigned) [Cmpd. 206]	50	707	2490	5.3
CC(O)Cn1cc(-c2nc(C(=O)NCc3c(F)cccc3F)c(N)nc2-c2ncco2)ccc1=O (single isomer, unassigned) [Example 107, 3-amino-N-(2,6-difluorobenzyl)-6-(1-(2-hydroxypropyl)-6-oxo-1,6-dihydropyridin-3-yl)-5-(oxazol-2-yl)pyrazine-2-carboxamide]	166	3490	341	76
CC(O)Cn1cc(-c2nc(C(=O)NCc3c(F)cccc3F)c(N)nc2-c2ncco2)ccc1=O (single isomer, unassigned) [Example 108, 3-amino-N-(2,6-difluorobenzyl)-6-(1-(2-hydroxypropyl)-6-oxo-1,6-dihydropyridin-3-yl)-5-(oxazol-2-yl)pyrazine-2-carboxamide]	3.6	132	55	0.6
Cc1cnc2ccc(-c3nc(C(=O)NCC4CCCCN4C)c(N)nc3-c3ncco3)cn12 (single isomer, unassigned; isomer 1) [Example 124, 3-amino-6-(3-methylimidazo[1,2-a]pyridin-6-yl)-N-((1-methylpiperidin-2-yl)methyl)-5-(oxazol-2-yl)pyrazine-2-carboxamide (isomer 1)]	≥ 10000	≥ 10000	10000	2260
Cc1cnc2ccc(-c3nc(C(=O)N[C@H]4CCCOC4)c(N)nc3-c3ncco3)cn12 (single isomer, unassigned; isomer 1) [Example 163, 3-amino-6-(3-methylimidazo[1,2-a]pyridin-6-yl)-5-(oxazol-2-yl)-N-(tetrahydro-2H-pyran-3-yl)pyrazine-2-carboxamide (isomer 1)]	22	387	> 10000	3.28
Cc1cnc2ccc(-c3nc(C(=O)NCC4CCCCO4)c(N)nc3-c3ncco3)cn12 (single isomer, unassigned; isomer 1) [Example 165, 3-amino-6-(3-methylimidazo[1,2-a]pyridin-6-yl)-5-(oxazol-2-yl)-N-((tetrahydro-2H-pyran-2-yl)methyl) pyrazine-2-carboxamide (isomer 1)]	1.42	73	207	0.24
Cc1cnc2ccc(-c3nc(C(=O)NCC4CC(=O)N(C)C4)c(N)nc3-c3ncco3)cn12 (single isomer, unassigned; isomer 1) [Example 213, 3-amino-N-((1-methyl-5-oxopyrrolidin-3-yl)methyl)-6-(3-methylimidazo[1,2-ajpyridin-6-yl)-5-(oxazol-2-yl)pyrazine-2-carboxamide (isomer 1)]	54	2530	505	22
Cc1cnc2ccc(-c3nc(C(=O)NCC4CN(C)CCO4)c(N)nc3-c3ccc(F)cc3)cn12 (single isomer, unassigned; isomer 1) [Example 246, 3-amino-5-(4-fluorophenyl)-6-(3-methylimidazo[1,2-a]pyridin-6-yl)-N-((4-methylmorpholin-2-yl)methyl) pyrazine-2-carboxamide (isomer 1)]	67	1100	44	17
COC(C)CNC(=O)c1nc(-c2ccc3ncc(C)n3c2)c(-c2ncco2)nc1N (single isomer, unassigned; isomer 1) [Example 248, 3-amino-N-(2-methoxypropyl)-6-(3-methylimidazo[1,2-a]pyridin-6-yl)-5-(oxazol-2-yl)pyrazine-2-carboxamide (isomer 1)]	18	140	121	2.9
Cc1cnc2ccc(-c3nc(C(=O)NCC4(C)CCOC4)c(N)nc3-c3ncco3)cn12 (single isomer, unassigned; isomer 1) [Example 251, 3-amino-6-(3-methylimidazo[1,2-a]pyridin-6-yl)-N-((3-methyltetrahydrofuran-3-yl)methyl)-5-(oxazol-2-yl)pyrazine-2-carboxamide (isomer 1)]	34	657	425	4.7
Cc1cnc2ccc(-c3nc(C(=O)N[C@@H]4CCCOC4)c(N)nc3-c3ncco3)cn12 (single isomer, unassigned; isomer 2) [Example 164, 3-amino-6-(3-methylimidazo[1,2-a]pyridin-6-yl)-5-(oxazol-2-yl)-N-(tetrahydro-2H-pyran-3-yl)pyrazine-2-carboxamide (isomer 2)]	12.7	479	> 10000	0.94
Cc1cnc2ccc(-c3nc(C(=O)NCC4CCCCO4)c(N)nc3-c3ncco3)cn12 (single isomer, unassigned; isomer 2) [Example 166, 3-amino-6-(3-methylimidazo[1,2-a]pyridin-6-yl)-5-(oxazol-2-yl)-N-((tetrahydro-2H-pyran-2-yl)methyl) pyrazine-2-carboxamide (isomer 2)]	1.48	47	358	0.24
Cc1cnc2ccc(-c3nc(C(=O)NCC4CC(=O)N(C)C4)c(N)nc3-c3ncco3)cn12 (single isomer, unassigned; isomer 2) [Example 210, 3-amino-N-((1-methyl-5-oxopyrrolidin-3-yl)methyl)-6-(3-methylimidazo[1,2-a]pyridin-6-yl)-5-(oxazol-2-yl)pyrazine-2-carboxamide (isomer 2)]	88	972	14700	11
COC(C)CNC(=O)c1nc(-c2ccc3ncc(C)n3c2)c(-c2ncco2)nc1N (single isomer, unassigned; isomer 2) [Example 241, 3-amino-N-(2-methoxypropyl)-6-(3-methylimidazo[1,2-a]pyridin-6-yl)-5-(oxazol-2-yl)pyrazine-2-carboxamide (isomer 2)]	27	205	272	4
Cc1cnc2ccc(-c3nc(C(=O)NCC4(C)CCCN4C)c(N)nc3-c3ncco3)cn12 (single isomer, unassigned; isomer 2) [Example 247, 3-amino-N-((1,2-dimethylpyrrolidin-2-yl)methyl)-6-(3-methylimidazo[1,2-a]pyridin-6-yl)-5-(oxazol-2-yl)pyrazine-2-carboxamide (isomer 2)]	345	2000	1490	36
Cc1cnc2ccc(-c3nc(C(=O)NCC4CN(C)CCO4)c(N)nc3-c3ccc(F)cc3)cn12 (single isomer, unassigned; isomer 2) [Example 250, 3-amino-5-(4-fluorophenyl)-6-(3-methylimidazo[1,2-a]pyridin-6-yl)-N-((4-methylmorpholin-2-yl)methyl) pyrazine-2-carboxamide (isomer 2)]	31	212	36	5
Cc1cnc2ccc(-c3nc(CNC(=O)[C@H]4CCCN4C)c(N)nc3-c3ccc(F)cc3)cn12 [Example 157, (2R)—N-[[3-amino-5-(4-fluorophenyl)-6-[3-methylimidazo[1,2-a]pyridin-6-yl]pyrazin-2-yl]methyl]-1-methylpyrrolidine-2-carboxamide]	2.9	59		0.3
